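Following 48 hours of exposure in 96-well plates, responses at five concentrations were used to interpolate endpoints linearly. GI50: concentration for 50% inhibition of growth. Definition used: TGI = concentration required for complete inhibition of growth.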 Bounds are passed on as bounds.

Among the test systems are DMS 114 small cell lung; HOP-18 NSCLC; M19-MEL melanoma; P388 leukemia; P388/ADR leukemia; SN12K1 renal; SNB-78 CNS; XF 498 CNS; KM20L2 colon; LXFL 529 NSCLC.
Common to all, as to assay: NCI tumour cell line growth inhibition, 48 h

On to `CCOC(=O)C(C)N1C(=O)c2ccccc2S1(=O)=O` (stereo not drawn), for which the TGI in the test on DMS 114 small cell lung, with HOP-18 NSCLC, in the test on M19-MEL melanoma, in the test with P388 leukemia, in the test on P388/ADR leukemia and with SN12K1 renal was greater than 100 µM throughout. Also, the TGI in the test with SNB-78 CNS and with XF 498 CNS was greater than 100 µM in each case. The GI50 with SNB-78 CNS is greater than 100 µM.

Turning to `S=c1nc[nH]c2c1ncn2C1CCCO1` (stereo not drawn), the TGI in the test with DMS 114 small cell lung, in the test with HOP-18 NSCLC, in the test with KM20L2 colon and in the test with LXFL 529 NSCLC was greater than 100 µM in each case.

As for `CN(C)CN(C)c1nc(N(C)C)nc(N(C)CN(C)C)n1`, the TGI with HOP-18 NSCLC, with KM20L2 colon, in the test with LXFL 529 NSCLC, in the test on M19-MEL melanoma and in the test with XF 498 CNS was greater than 100 µM each time.

For the origin of these results see PubChem BioAssay (NCI).
